Experimental findings from patent EP2966448B1, “METHOD FOR THE PREDICTION OR PROGNOSIS OF THE RESPONSE OF A HUMAN SUBJECT SUFFERING FROM CANCER TO TREATMENT WITH AN ANTAGONIST OF THE NK1 RECEPTOR” (priority 2013, dated 2014) are described below.

Where two headings read alike, the source gives them in different places.

The inhibition is the share of the control response that was lost under treatment.

Test [1] relates to human primary tumor cells. The test is described as follows: Inhibition of primary tumor cell cultures vs constitutively activated form of NK1 receptor (Example 7; tumor type per table line). The class given is cell-based.
Description: (§1) Cell cultures. To obtain tumor cells from human primary tumors we used the method described in De Bari et al. (De Bari et al. 2001). Briefly, small pieces of the tumors were digested into a hyaluronidase solution (Sigma-Aldrich, USA) at a concentration of 1 mg/ml during 15 minutes at 37°C, and then they were treated with 6 mg/ml of collagenase type IV (Invitrogen) during 2 hours at 37°C. Consecutively, cells were washed, and resuspended in the DMEM culture medium with high concentration of glucose (Dulbecco's Modified Eagle's Medium, Invitrogen) supplemented with 1% of antibiotics-antimycotics (Invitrogen) and with 1% of sodium pyruvate (Invitrogen), and the cells were seeded in culture slides at a concentration of 10.000 cells per square centimeter. When cells reached confluence, the adherent cells were separated using sterile trypsin at 0,5% (Invitrogen) and they were used among passages 3 and 9. For the assays shown next, tumor cells were seeded on slides at a concentration of 25.000 cells per well. A total of 6 wells containing the tumor cells were used as survival control. […] All the cultures were kept during 48 hours and later on recollected for their analysis.
It was determined the increase or not in proliferation with the exposition to substance P (NK1 receptor agonist), so that for the cell cultures which grew independently from the exposition to substance P, it was considered that they have constitutively activated forms of such receptor, because a mitogenic signal independently from the presence of the agonist was transmitted. It was checked that all tumor cells presented integrity in the MAP Kinases and PI3 Kinases pathways, as wel as in the K-ras gene, and the protein derived from it.
The test system of another test is Ovarian carcinoma. The test is described as follows: Inhibition of primary tumor cell cultures (48 hours) vs NK1 receptor immunostaining (Example 1). As to conditions: Homo sapiens, 1 micromolar, read-out: Percentage of inhibition of cell cultures. In kind it is cell-based.
The test system of test [2] is Urinary bladder carcinoma. The test is described as above. In kind it is cell-based. The note with it: Homo sapiens, 1 micromolar, read-out: Percentage of inhibition of cell cultures.
Description: as §1
(§2) Immunohistochemistry techniques. The presence of NK1 receptors was also analyzed using immunohistochemistry techniques. Briefly, a sample of each of the cultures of the cell lines used in the present invention, was centrifuged (5 minutes at 1.500 rpm) and the pellet obtained was dehydrated using increasing concentrations of ethanol and, finally, xylol. Then, said dehydrated samples were embedded in paraffin, creating a block of cells. Such paraffin blocks were cut with a microtome at 5 microns thickness, and were placed on microscope slides adequate to perform immunohistochemistry techniques. Consecutively, they were de-paraffinized by immersing them in xylol, to be finally hydrated using a solution containing decreasing concentrations of ethanol, and finally submerged them into water. […] After this, the samples were left to cool down at room temperature for 10 minutes. The endogenous peroxidase activity was blocked with 3% peroxide of hydrogen for 30 minutes at room temperature. After washing the samples with 0.05 M of Tris buffer, they were incubated with 10% non-immune pork serum at for 30 minutes at room temperature. To analyze the expression of NK1 receptors, the cellular samples were incubated in the presence of anti-NK1 antibodies (S8305, Sigma-Aldrich) diluted 1:1000, overnight at 4°C. Afterwards, the samples were washed in Tris buffer 0.05 M at room temperature. The next step was the addition of Envision System-HRP (Dako) reagents for 30 minutes at room temperature. Then, the samples were washed again in Tris buffer 0.05 M and the immunoreactivity was visualized through light microscopy with a chromogenic solution containing 3,3'-Diaminobenzidine (DAB+; Dako, USA). To differentiate the cell nuclei, they were slightly stained with hematoxylin. As negative control, it was used samples not incubated with the primary antibody anti-NK1, which was replaced by non-immune serum. All the samples were evaluated.
(§3) To value the immunostaining in each of the cases six cuts were performed to be analyzed by the immunohistochemistry technique. In each of the six cuts, it was counted cells in 20 fields (magnification 400x) using an Olympus microscope (model CX31). In each field it was counted the total number of cells and the number of cells presenting immunostaining, calculating afterwards the percentage of cells which presented immunostaining.
The next test has as its system Melanoma. The test is described as above. In kind it is cell-based. As to conditions: Homo sapiens, 1 micromolar, read-out: Percentage of inhibition of cell cultures.
The next test concerns Leukemia T. The test is described as above. The class given is cell-based. As to conditions: Homo sapiens, 1 micromolar, read-out: Percentage of inhibition of cell cultures.
The next test relates to Non Hodgkin Lymphoma T. Described as above. In kind it is cell-based. As to conditions: Homo sapiens, 1 micromolar, read-out: Percentage of inhibition of cell cultures.
Test [3] deals with Renal cell carcinoma (clear cell renal cell carcinoma). The test can be described thus: Inhibition of primary tumor cell cultures vs Kras mutation (Example 2). The class given is cell-based, human. The note with it: 100 micromolar; for inhibition at 100 µM: Homo sapiens, read-out: Percentage of inhibition of cell cultures; for Percentage of inhibition of cell cultures: Renal cell carcinoma (clear cell renal cell carcinoma).
Description: as §1
(§4) In each case the presence or not of mutations in K-ras gene was determined.
(§5) To determine the existence of mutations in the K-ras gene DNA from cancer tumor cells was extracted from samples obtained from the different cancer tumor cells, using DNA extraction kits from Takara (Madison, WI, US) or Ambion (Huntingdon, Cambridgeshire, United Kingdom), following the manufacturer's instructions, and as it has been previously published (Di Fiore F, et al. 2007). Consecutively it was analyzed by sequencing the exon 2 of the KRAS gene, , by means of PCR amplification from previously extracted cancer tumor DNA, using the following sense primer (SEQ ID NO. 15): 5'-[sequence]-3' and anti-sense primer (SEQ ID NO. 16): 5'-[sequence]-3'. After the purification using the Qiagen extraction kit, the PCR products were sequenced using the Big Dye Terminator Kit V3.1 (Applied Biosystems, Foster City, CA, U.S.) and an ABI Prism 377 or 3100 DNA sequencer (Applied Biosystems). The presence of a heterozygous mutation in the KRAS gene in cancer tumor cells of the cultures was defined as the appearance of a mutant peak of a height of at least a third of the wild type. All the sequence analysis were executed at least twice in two independent PCR.
(§6) The antibody against NK1 receptor (Table 16) was used at 1/50 concentration. The percentages of inhibition are expressed in percentage of variation in relation to control ± standard deviation.

Test [4] deals with Carcinoma of the uterine cervix (Squamous cell carcinoma). The test is described as above. As to conditions: 100 micromolar; for inhibition at 100 µM: Homo sapiens, read-out: Percentage of inhibition of cell cultures; for Percentage of inhibition of cell cultures: Carcinoma of the uterine cervix (Squamous cell carcinoma). The class given is cell-based, human.
Description: as §1, §4, §5, §6
Setting [5] is: NK1 receptor immunostaining Group 1 (less than 20% of the cells).
[6] abbreviates: NK1 receptor immunostaining Group 2 (20-80% of the cells).
Setting [7] is: NK1 receptor immunostaining Group 3 (more than 80% of the cells).
Setting [8] is: NK1 receptor immunostaining Intensity grade 1.
Where [9] appears, read: NK1 receptor immunostaining Intensity grade 2.
Where [10] appears, read: NK1 receptor immunostaining Intensity grade 3.
The mark [11] stands for this setting: Cases with Kras non-mutated (wild type).

Description for Leukemia T: as §1, §2, §3
Description for Melanoma: as §1, §2, §3
Description for Non Hodgkin Lymphoma T: as §1, §2, §3
Description for Ovarian carcinoma: as §1, §2, §3

Turning to `C[C@@H](O[C@H]1OCCN(Cc2n[nH]c(=O)[nH]2)[C@H]1c1ccc(F)cc1)c1cc(C(F)(F)F)cc(C(F)(F)F)c1` [Aprepitant], the “Percentage of inhibition of cell cultures” value in test [1] (Non Hodgkin Lymphoma B (diffuse B cell lymphoma), Group I (constitutively activated form of NK1 receptor)) turned out to be 74±6%; in test [1] (Non Hodgkin Lymphoma T (diffuse T cell lymphoma), Group I (constitutively activated form of NK1 receptor)), 75±6%; in test [1] (Non Hodgkin Lymphoma T (diffuse T cell lymphoma), Group II (normal form of the receptor)), 96±4%. Besides, the “inhibition of tumor cell growth” value in test [1] (group with little proliferating response when exposed to substance P (constitutively activated form of NK1 receptor), compared) is reported as “higher inhibition”.
With `CC(=O)N1CCN([C@H]2CCN(C(=O)N(C)[C@H](C)c3cc(C(F)(F)F)cc(C(F)(F)F)c3)[C@@H](c3ccc(F)cc3C)C2)CC1` [Casopitant], the inhibition at 1 µM in the test on Ovarian carcinoma (setting [5]) came to 14 ± 3%; in the test on Ovarian carcinoma (setting [6]), 49 ± 3%; in the test with Ovarian carcinoma (setting [7]), 94 ± 4%; with Ovarian carcinoma (setting [8]), 33 ± 4%; in the test on Ovarian carcinoma (setting [9]) it was 54 ± 4%; in the test with Ovarian carcinoma (setting [10]), 91 ± 3%. For the same compound, the inhibition at 1 µM stood at 17 ± 3% in test [2] (setting [5]); 45 ± 3% in test [2] (setting [6]); 94 ± 6% in test [2] (setting [7]); 34 ± 4% in test [2] (setting [8]); 56 ± 4% in test [2] (setting [9]); 93 ± 4% in test [2] (setting [10]). Besides, the inhibition at 1 µM amounted to 15 ± 3% with Melanoma (setting [5]); 46 ± 4% in the test on Melanoma (setting [6]); 93 ± 5% in the test with Melanoma (setting [7]); 34 ± 3% in the test with Melanoma (setting [8]); 52 ± 4% in the test with Melanoma (setting [9]); 93 ± 3% in the test with Melanoma (setting [10]). In addition, the inhibition at 1 µM with Leukemia T (setting [5]) is 16 ± 2%; with Leukemia T (setting [6]) it was 47 ± 5%; with Leukemia T (setting [7]), 95 ± 3%; with Leukemia T (setting [8]) it was 34 ± 2%; in the test on Leukemia T (setting [9]), 56 ± 4%; in the test on Leukemia T (setting [10]), 93 ± 3%. For the same compound, the inhibition at 1 µM with Non Hodgkin Lymphoma T (setting [5]) was determined as 14 ± 2%; with Non Hodgkin Lymphoma T (setting [6]), 46 ± 6%; in the test on Non Hodgkin Lymphoma T (setting [7]), 94 ± 5%; in the test with Non Hodgkin Lymphoma T (setting [8]), 36 ± 5%; with Non Hodgkin Lymphoma T (setting [9]), 54 ± 5%; in the test on Non Hodgkin Lymphoma T (setting [10]), 92 ± 2%. The inhibition at 100 µM was found to be 27 ± 4% in test [3] (Cases with Kras mutated), 94 ± 3% in test [3] (setting [11]), 27 ± 3% in test [4] (Cases with Kras mutated) and 93 ± 3% in test [4] (setting [11]).
For the compound `Cc1cc(F)ccc1[C@H]1CNCCN1C(=O)N(C)[C@H](C)c1cc(C(F)(F)F)cc(C(F)(F)F)c1` [Vestipitant], the inhibition at 1 µM is 14 ± 4% with Ovarian carcinoma (setting [5]); 47 ± 4% in the test on Ovarian carcinoma (setting [6]); 95 ± 5% with Ovarian carcinoma (setting [7]); 15 ± 3% with Ovarian carcinoma (setting [8]); 46 ± 2% in the test with Ovarian carcinoma (setting [9]); 95 ± 4% in the test with Ovarian carcinoma (setting [10]). Also, the inhibition at 1 µM stood at 15 ± 3% in test [2] (setting [5]); 47 ± 4% in test [2] (setting [6]); 92 ± 5% in test [2] (setting [7]); 17 ± 3% in test [2] (setting [8]); 46 ± 3% in test [2] (setting [9]); 92 ± 3% in test [2] (setting [10]). Moreover, the inhibition at 1 µM worked out at 16 ± 3% with Melanoma (setting [5]); 45 ± 4% in the test with Melanoma (setting [6]); 92 ± 6% in the test with Melanoma (setting [7]); 15 ± 3% in the test with Melanoma (setting [8]); 48 ± 4% in the test with Melanoma (setting [9]); 92 ± 4% in the test on Melanoma (setting [10]). For the same compound, the inhibition at 1 µM in the test on Leukemia T (setting [5]) stood at 17 ± 4%; with Leukemia T (setting [6]), 46 ± 3%; in the test on Leukemia T (setting [7]), 94 ± 4%; in the test on Leukemia T (setting [8]) it was 15 ± 3%; with Leukemia T (setting [9]) it was 48 ± 4%; in the test on Leukemia T (setting [10]), 94 ± 5%. In addition, the inhibition at 1 µM in the test on Non Hodgkin Lymphoma T (setting [5]) turned out to be 13 ± 4%; with Non Hodgkin Lymphoma T (setting [6]) it was 46 ± 4%; in the test on Non Hodgkin Lymphoma T (setting [7]), 93 ± 6%; with Non Hodgkin Lymphoma T (setting [8]), 17 ± 2%; with Non Hodgkin Lymphoma T (setting [9]), 48 ± 4%; in the test on Non Hodgkin Lymphoma T (setting [10]), 93 ± 5%. For the same compound, the “Percentage of inhibition of cell cultures” value is listed as 25±5 percentage in test [3] (Cases with Kras mutated), 95±6 percentage in test [3] (setting [11]), 25±5 percentage in test [4] (Cases with Kras mutated) and 94±3 percentage in test [4] (setting [11]).
